Reference: paper PMC7570910, “8-Hydroxyquinoline Glycoconjugates Containing Sulfur at the Sugar Anomeric Position—Synthesis and Preliminary Evaluation of Their Cytotoxicity” (Molecules, 2020)

Tests used:
Assay type in all cases: cell-based
[1] = test system: MCF-7 cells; assay: MTT cytotoxicity assay, MCF-7; conditions: Homo sapiens, MCF7, incubation time 72 h, mean ± SD (n = 3)
Method: (§1) In vitro cytotoxicity studies of the obtained building blocks and glycoconjugates were carried out on cell lines characterized by the high expression of GLUT transporters and the strongly changed glucose metabolism (strong Warburg effect). […] Cytotoxicity was evaluated using the MTT assay.
The human cell line MCF-7 was obtained from collections at the Maria Sklodowska-Curie Memorial Cancer Center and Institute of Oncology, branch in Gliwice, Poland. […] The culture media were purchased from EuroClone and HyClone. Fetal bovine serum (FBS) was delivered by EURx, Poland, and Antibiotic Antimycotic Solution (100×) by Sigma-Aldrich, Germany. The cells were cultured under standard conditions at 37 °C in a humidified atmosphere at 5% CO2.
(§2) The viability of the cells was determined using an MTT (3-[4,5–dimethylthiazol-2-yl]-2,5-diphenyltetrazolium bromide) test (Sigma-Aldrich). Stock solutions of tested compounds were prepared in DMSO and diluted with the appropriate volumes of the growth medium directly before the experiment. […] The cell cultures were incubated for 24 h at 37 °C in a humidified atmosphere of 5% CO2. Then, the culture medium was removed, replaced with the solution of the tested compounds in medium with varying concentrations, and incubated for further 24 h or 72 h. After that, the medium was removed, and the MTT solution (50 µL, 0.5 mg/mL in PBS) was added. After 3 h of incubation, the MTT solution was removed, and the precipitated formazan was dissolved in DMSO. Finally, the absorbance at the 570 nm wavelength was measured spectrophotometrically with the plate reader. The experiment was conducted in at least three independent iterations with four technical repetitions. The IC50 values were calculated using CalcuSyn software (version 2.0, Biosoft, Cambridge, UK).

[2] = test system: Normal Human Dermal Fibroblasts-Neonatal (NHDF-Neo); assay: MTT cytotoxicity assay, NHDF-Neo; conditions: incubation time 24 h, mean ± SD (n = 3)
Method: as §1
[…] […] The culture media were purchased from EuroClone and HyClone. Fetal bovine serum (FBS) was delivered by EURx, Poland, and Antibiotic Antimycotic Solution (100×) by Sigma-Aldrich, Germany. The cells were cultured under standard conditions at 37 °C in a humidified atmosphere at 5% CO2.
as §2

[3] = test system: HCT-116 cells; assay: MTT cytotoxicity assay, HCT-116; conditions: Homo sapiens, incubation time 24 h, mean ± SD (n = 3)
[4] = test system: MCF-7 cells; assay: Influence of metal ions on cellular proliferation (MTT with Cu2+), MCF-7; conditions: Homo sapiens, MCF7; MTT assay, 72 h, addition of copper acetate at 100 µM
Method: (§3) Cultured cancer cells, in contrast to in vivo environment, are characterized by a low copper level. Therefore, additional experiments were carried out for compounds whose expected mechanism of action is based on the chelation of metal ions. The antiproliferative activities of glycoconjugates 67, 68, 70, and 71 were tested in the presence of Cu^2+ ions. The effect of the interaction of glycoconjugate complexes with metal ions on cell proliferation was measured by adding a copper salt solution to the growth medium and observing the rate of cell growth compared to copper-untreated cells.
(§4) During the appropriate experiments, the cells (MCF-7, HCT-116, and NHDF-Neo) were treated with solutions of glycoconjugate 67, 68, 70, or 71 in medium culture, supplemented with 100 µM copper acetate, and then their proliferation was measured by the MTT assay. The control system was cells suspended in medium supplemented with DMSO in the amount used to dissolve the compounds and the addition of the same amount of copper. […] The highest cytotoxic activity of the compounds was observed against the MCF-7 cell line. […] This confirmed the strong sensitivity of breast cancer cells to 8-HQ derivatives.
It can be seen that the greatest differences in cell survival occurred in the case of MCF-7 cell lines. A significant decrease in the proliferation of MCF-7 cells was observed after treatment with glycoconjugates at a concentration of 50 µM in the presence of Cu^2+ (cell viability 10–28%), compared to experiments with glycoconjugates alone. In this case, the cytotoxicity of glycoconjugates increased about three-fold in the presence of Cu(II) ions. […] For HCT-116 and NHDF-Neo cell lines, only slight differences in cell viability were observed after treatment with free compounds and when […] ions were added.
(§5) The cells were seeded into 96-well plates at concentration 1 × 10^4 (HCT 116, NHDF-Neo) or 5 × 10^3 (MCF-7) per well. The cell cultures were incubated for 24 h at 37 °C in a humidified atmosphere of 5% CO2. Then, the culture medium was removed, replaced with the solution of the tested compounds in medium with varying concentrations. Additionally, 100 µM solution of Cu(CH3COO)2 was added into wells with tested compounds. After 24 h or 72 h incubation, the MTT assay was performed.

[5] = test system: Normal Human Dermal Fibroblasts-Neonatal (NHDF-Neo); assay: Influence of metal ions on cellular proliferation (MTT with Cu2+), NHDF-Neo; conditions: MTT assay, 24 h, addition of copper acetate at 100 µM
Method: as §3, §4, §5

[6] = test system: HCT-116 cells; assay: Influence of metal ions on cellular proliferation (MTT with Cu2+), HCT-116; conditions: Homo sapiens, MTT assay, 24 h, addition of copper acetate at 100 µM
Method: as §3, §4, §5

Row | SMILES | IC50 [1] [µM] | IC50 [2] [µM] | IC50 [3] [µM] | IC50 [4] [µM] | IC50 [5] [µM] | IC50 [6] [µM]
1 | C#CCOC(=O)Nc1ccc(S[C@@H]2O[C@H](COC(C)=O)[C@@H](OC(C)=O)[C@H](OC(C)=O)[C@H]2OC(C)=O)nc1 [Compound 36, (5-(((prop-2-yn-1-yloxy)carbonyl)amino)-2-pyridyl) 2,3,4,6-tetra-O-acetyl-1-thio-β-D-glucopyranoside] | 38.3 ± 2.44 | 41.7 ± 3.4 | 125 ± 8.98 |  |  | 
2 | CC(=O)OC[C@H]1O[C@@H](SCc2cn(CCCOc3cccc4cccnc34)nn2)[C@H](OC(C)=O)[C@@H](OC(C)=O)[C@H]1OC(C)=O [Compound 60] | 212 ± 3.46 | 421.2 ± 0.14 | 304.8 ± 1.34 |  |  | 
3 | Cc1ccc2cccc(OCCCn3cc(CS[C@@H]4O[C@H](CO)[C@H](O)[C@H](O)[C@H]4O)nn3)c2n1 [Compound 66] | > 800 |  | > 800 |  |  | 
4 | COc1cccc2c1C(=O)c1c(O)c3c(c(O)c1C2=O)C[C@@](O)(C(=O)CO)C[C@@H]3O[C@H]1C[C@H](N)[C@H](O)[C@H](C)O1 [Doxorubicin, reference compound] | 0.67 ± 0.01 | > 20 | 5.59 ± 0.14 |  |  | 
5 | Cc1ccc2cccc(O)c2n1 [Compound 2Me8HQ, 8-hydroxyquinaldine, reference compound] |  |  | > 800 |  |  | 
6 | CC(=O)OC[C@H]1O[C@@H](Sc2ccc(NC(=O)OCc3cn(CCCOc4cccc5cccnc45)nn3)cn2)[C@H](OC(C)=O)[C@@H](OC(C)=O)[C@@H]1OC(C)=O [Compound 70] | 67.5 ± 1.58 | 64 ± 5.34 | 63.5 ± 2.37 | 25.9 ± 1.76 | 68.4 ± 1.11 | 73.9 ± 2.99
7 | C#CCOC(=O)Nc1ccc(S[C@@H]2O[C@H](CO)[C@@H](O)[C@H](O)[C@H]2O)nc1 [Compound 38] | > 800 |  | > 800 |  |  | 
8 | CC(=O)OC[C@H]1O[C@@H](Sc2ccc(NC(=O)CN=[N+]=[N-])cn2)[C@H](OC(C)=O)[C@@H](OC(C)=O)[C@@H]1OC(C)=O [Compound 33, (5-azidoacetamide-2-pyridyl) 2,3,4,6-tetra-O-acetyl-1-thio-β-D-glucopyranoside] | 6.39 ± 0.07 | 11.2 ± 0.31 | 13.39 ± 0.1 |  |  | 
9 | O=C(Nc1ccc(S[C@@H]2O[C@H](CO)[C@@H](O)[C@H](O)[C@H]2O)nc1)OCc1cn(CCCOc2cccc3cccnc23)nn1 [Compound 72] | 739.2 ± 3.79 | > 800 | > 800 |  |  | 
10 | CC(=O)OC[C@H]1O[C@@H](Sc2ccc(NC(=O)Cn3cc(COc4cccc5cccnc45)nn3)cn2)[C@H](OC(C)=O)[C@@H](OC(C)=O)[C@@H]1OC(C)=O [Compound 67] | 69.7 ± 3.5 | 71.8 ± 6.7 | 146 ± 3.49 | 28.9 ± 1.52 | 71.4 ± 1.35 | 74.5 ± 0.16
11 | CC(=O)OC[C@H]1O[C@@H](SCc2cn(CCCOc3cccc4ccc(C)nc34)nn2)[C@H](OC(C)=O)[C@@H](OC(C)=O)[C@@H]1OC(C)=O [Compound 61] | 130.4 ± 0.2 | 260 ± 7.65 | 108 ± 1.62 |  |  | 
12 | CC(=O)OC[C@H]1O[C@@H](SCc2cn(CCCOc3cccc4ccc(C)nc34)nn2)[C@H](OC(C)=O)[C@@H](OC(C)=O)[C@H]1OC(C)=O [Compound 62] | 244 ± 3.04 | 667.6 ± 6.43 | 324 ± 1.61 |  |  | 
13 | CC(=O)OC[C@H]1O[C@@H](Sc2ccc(NC(=O)Cn3cc(COc4cccc5cccnc45)nn3)cn2)[C@H](OC(C)=O)[C@@H](OC(C)=O)[C@H]1OC(C)=O [Compound 68] | 96.3 ± 5.99 | 111 ± 2.78 | 130 ± 1.31 | 23.8 ± 0.48 | 83.6 ± 3.03 | 96.01 ± 0.59
14 | Oc1cccc2cccnc12 [Compound 8HQ, 8-hydroxyquinoline] | 0.24 ± 0.01 | > 800 | > 800 |  |  | 
15 | OC[C@H]1O[C@@H](SCc2cn(CCCOc3cccc4cccnc34)nn2)[C@H](O)[C@@H](O)[C@@H]1O [Compound 63] | > 800 |  | > 800 |  |  | 
16 | Cc1ccc2cccc(OCCCn3cc(CS[C@@H]4O[C@H](CO)[C@@H](O)[C@H](O)[C@H]4O)nn3)c2n1 [Compound 65] | > 800 |  | > 800 |  |  | 
17 | CC(=O)OC[C@H]1O[C@@H](SCc2cn(CCCOc3cccc4cccnc34)nn2)[C@H](OC(C)=O)[C@@H](OC(C)=O)[C@@H]1OC(C)=O [Compound 59] | 153.3 ± 0.25 | 229.1 ± 2.06 | 173 ± 3.48 |  |  | 
18 | CC(=O)OC[C@H]1O[C@@H](Sc2ccc(NC(=O)OCc3cn(CCCOc4cccc5cccnc45)nn3)cn2)[C@H](OC(C)=O)[C@@H](OC(C)=O)[C@H]1OC(C)=O [Compound 71] | 68.3 ± 3.68 | 75.26 ± 0.38 | 90.68 ± 0.52 | 20.5 ± 1.55 | 69.3 ± 2.9 | 83 ± 1.37
19 | C#CCOC(=O)Nc1ccc(S[C@@H]2O[C@H](COC(C)=O)[C@H](OC(C)=O)[C@H](OC(C)=O)[C@H]2OC(C)=O)nc1 [Compound 37] | 392 ± 5.29 |  | 456.7 ± 3.85 |  |  | 
20 | [N-]=[N+]=NCC(=O)Nc1ccc(S[C@@H]2O[C@H](CO)[C@@H](O)[C@H](O)[C@H]2O)nc1 [Compound 35, (5-azidoacetamide-2-pyridyl) 1-thio-β-D-glucopyranoside] | > 800 |  | > 800 |  |  | 
21 | CC(=O)OC[C@H]1O[C@@H](Sc2ccc(NC(=O)CN=[N+]=[N-])cn2)[C@H](OC(C)=O)[C@@H](OC(C)=O)[C@H]1OC(C)=O [Compound 34, (5-azidoacetamide-2-pyridyl) 2,3,4,6-tetra-O-acetyl-1-thio-β-D-galactopyranoside] | 383 ± 4.23 |  | 541.4 ± 3.73 |  |  | 
22 | O=C(Cn1cc(COc2cccc3cccnc23)nn1)Nc1ccc(S[C@@H]2O[C@H](CO)[C@@H](O)[C@H](O)[C@H]2O)nc1 [Compound 69] | 144 ± 2.68 | 163.81 ± 0.01 | 210.4 ± 0.55 |  |  | 
